Reference: patent US9072753B1, “Gargle method to reduce the duration of common cold symptoms” (priority 2001, dated 2015)
Entries after “also recorded” stand apart in the source; their conditions may differ. Where two headings read alike, the source gives them in different places.

Key:
[1] = system: common cold; test: Case examples, nonalcoholic mouthwash remedies in subjects with a cold; assay type: in vivo, human; settings: single subject per example; 15 ml mouthwash three times a day for at least two days
Experimental: In order to facilitate a more complete understanding of the invention, a number of Examples are provided below. However, the scope of the invention is not limited to specific embodiments disclosed in these Examples, which are for purposes of illustration only. In each of the following Examples, the subjects were administered one tablespoon (15 ml) of remedy in a mouthwash formulation three times a day for at least two days comprising: […]

[2] = system: Rhinovirus 14; test: Antiviral activity testing against rhinovirus (Rhinovirus 14 in KB cells); assay type: cell-based; settings: for Virus Inhibition: 4 values and above indicate excellent antiviral activity
[3] = system: KB cells
[4] = system: Madin Darby Canine Kidney (MDCK) cells; test: Toxicity of materials in the influenza test (MDCK cells); assay type: cell-based; settings: Table 2
[5] = system: Influenza A/Hong Kong/68 (H3N2); test: Antiviral activity testing against influenza virus in MDCK cells; assay type: cell-based; settings: Influenza A/Hong Kong/68 (H3N2) in MDCK cells; for Virus Inhibition: 4 values and above indicate excellent antiviral activity
Excerpt: Results of antiviral invitro testing performed at baylor college of medicine department of molecular virology & microbiology.

[6] = healthy HIV-negative humans; cited from earlier work
[7] = system: myxoviruses; settings: cited from earlier work
[8] = system: broad spectrum of viruses; settings: cited from earlier work
[9] = system: cells in tissue culture; settings: high concentrations; cited from earlier work
[10] = in vivo; cited from earlier work
[11] = system: RNA-dependent DNA polymerases (reverse transcriptases) of both Moloney and Rauscher leukemia viruses; settings: cited from earlier work
[12] = system: common cold; settings: after seven days; 37 zinc-treated subjects; cited from earlier work

Row | Compound | Recovery from the cold [1] | Virus Inhibition [2] | Toxicity [4] | Virus Inhibition [5] | Toxicity ([3]; human) | also measured
1 | O=C1O[C@H]([C@@H](O)CO)C(O)=C1O [Ascorbic Acid] | within one day; also recorded: within two days | 4 | – | – | – | –
2 | O=C([O-])O.[Na+] [Baking Soda] | within one day; also recorded: within two days; also recorded: within three days | 4 | 0 | 2 | – | Toxicity [3]: 2; Selective Inhibition [2]: 2; Selective Inhibition [5]: 4
3 | CCCc1cc(=O)oc2c3c(c4c(c12)OC(C)(C)C=C4)O[C@H](C)[C@@H](C)[C@@H]3O [Calanolide A] | – | – | – | – | – | Safety and tolerability [6]: safe and well tolerated
4 | O=C(O)CC(O)(CC(=O)O)C(=O)O [Citric Acid] | within three days; also recorded: within one day; also recorded: within four days; also recorded: within two days; also recorded: within ten days; also recorded: within five days | 6 | 6 | 6 | 6 | –
5 | OO [Hydrogen Peroxide] | – | 7 | 6 | 6 | 7 | –
6 | O=C(O)CC(O)C(=O)O (centres unmarked) [Malic Acid] | – | 6 | 6 | 6 | 6 | –
7 | COC(=O)C1=CO[C@@H](C)[C@@H](C=O)[C@@H]1CC(=O)[O-].COC(=O)C1=CO[C@@H](C)[C@@H](C=O)[C@@H]1CC(=O)[O-].[Ca+2] [calcium elenolate] | – | – | – | – | – | Inactivation of myxoviruses [7]: inactivates all myxoviruses so far tested; Virucidal activity in vitro [8]: virucidal for a broad spectrum of viruses in vitro; Toxicity to cells in tissue culture [9]: relatively nontoxic; Tolerability in animals [10]: well tolerated; Inhibition of reverse transcriptases [11]: inhibits
8 | zinc | – | – | – | – | – | Subjects asymptomatic [12]: 86%
